# In ChEMBL document CHEMBL4507319 (2021):
# Tests used:
# Conditions in all cases: Compound concentration 1000.0 nM
# [1] = target: Proto-oncogene tyrosine-protein kinase ROS (Homo sapiens) (UniProt P08922)
# [2] = system: eIF-2-alpha kinase GCN2 (Homo sapiens), Q9P2K8 [S808G]
# [3] = target: Mitogen-activated protein kinase kinase kinase kinase 1 (Homo sapiens) (UniProt Q92918)
# [4] = system: ALK tyrosine kinase receptor (Homo sapiens), Q9UM73 [L1196M]
# [5] = target: Dual specificity protein kinase CLK3 (Homo sapiens) (UniProt P49761)
# [6] = target: Mitogen-activated protein kinase 8 (Homo sapiens) (UniProt P45983)
# Chain of Mitogen-activated protein kinase 8 (Homo sapiens) (P45983 whole entry): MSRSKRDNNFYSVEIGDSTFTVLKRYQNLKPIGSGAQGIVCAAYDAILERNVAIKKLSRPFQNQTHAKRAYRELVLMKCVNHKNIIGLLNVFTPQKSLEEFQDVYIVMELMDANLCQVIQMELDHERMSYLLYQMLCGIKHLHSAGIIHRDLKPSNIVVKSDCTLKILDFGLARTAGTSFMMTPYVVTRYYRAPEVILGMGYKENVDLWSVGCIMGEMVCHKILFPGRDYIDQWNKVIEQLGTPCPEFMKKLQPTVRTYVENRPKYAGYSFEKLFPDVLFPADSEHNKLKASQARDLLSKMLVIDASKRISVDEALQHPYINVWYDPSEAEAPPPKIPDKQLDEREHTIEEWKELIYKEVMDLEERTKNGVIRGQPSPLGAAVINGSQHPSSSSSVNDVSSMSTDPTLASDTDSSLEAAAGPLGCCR
# [7] = target: Cyclin-dependent kinase-like 1 (Homo sapiens) (UniProt Q00532)
# Chain of Cyclin-dependent kinase-like 1 (Homo sapiens) (Q00532 whole entry): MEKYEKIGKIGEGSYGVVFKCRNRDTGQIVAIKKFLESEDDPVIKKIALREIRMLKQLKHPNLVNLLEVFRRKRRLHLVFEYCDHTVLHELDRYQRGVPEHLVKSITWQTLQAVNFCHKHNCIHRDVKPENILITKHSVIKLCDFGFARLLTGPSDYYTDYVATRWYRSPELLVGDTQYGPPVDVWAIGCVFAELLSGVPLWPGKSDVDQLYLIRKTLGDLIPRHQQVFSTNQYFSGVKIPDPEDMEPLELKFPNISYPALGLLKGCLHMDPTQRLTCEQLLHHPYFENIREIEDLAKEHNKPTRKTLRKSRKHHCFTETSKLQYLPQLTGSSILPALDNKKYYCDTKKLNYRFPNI
# [8] = system: Epidermal growth factor receptor (Homo sapiens), P00533 [L861Q]
# [9] = target: Myosin light chain kinase family member 4 (Homo sapiens) (UniProt Q86YV6)
# [10] = target: Mitogen-activated protein kinase kinase kinase kinase 4 (Homo sapiens) (UniProt O95819)
# Chain of Mitogen-activated protein kinase kinase kinase kinase 4 (Homo sapiens) (O95819 2-1239 limits assumed): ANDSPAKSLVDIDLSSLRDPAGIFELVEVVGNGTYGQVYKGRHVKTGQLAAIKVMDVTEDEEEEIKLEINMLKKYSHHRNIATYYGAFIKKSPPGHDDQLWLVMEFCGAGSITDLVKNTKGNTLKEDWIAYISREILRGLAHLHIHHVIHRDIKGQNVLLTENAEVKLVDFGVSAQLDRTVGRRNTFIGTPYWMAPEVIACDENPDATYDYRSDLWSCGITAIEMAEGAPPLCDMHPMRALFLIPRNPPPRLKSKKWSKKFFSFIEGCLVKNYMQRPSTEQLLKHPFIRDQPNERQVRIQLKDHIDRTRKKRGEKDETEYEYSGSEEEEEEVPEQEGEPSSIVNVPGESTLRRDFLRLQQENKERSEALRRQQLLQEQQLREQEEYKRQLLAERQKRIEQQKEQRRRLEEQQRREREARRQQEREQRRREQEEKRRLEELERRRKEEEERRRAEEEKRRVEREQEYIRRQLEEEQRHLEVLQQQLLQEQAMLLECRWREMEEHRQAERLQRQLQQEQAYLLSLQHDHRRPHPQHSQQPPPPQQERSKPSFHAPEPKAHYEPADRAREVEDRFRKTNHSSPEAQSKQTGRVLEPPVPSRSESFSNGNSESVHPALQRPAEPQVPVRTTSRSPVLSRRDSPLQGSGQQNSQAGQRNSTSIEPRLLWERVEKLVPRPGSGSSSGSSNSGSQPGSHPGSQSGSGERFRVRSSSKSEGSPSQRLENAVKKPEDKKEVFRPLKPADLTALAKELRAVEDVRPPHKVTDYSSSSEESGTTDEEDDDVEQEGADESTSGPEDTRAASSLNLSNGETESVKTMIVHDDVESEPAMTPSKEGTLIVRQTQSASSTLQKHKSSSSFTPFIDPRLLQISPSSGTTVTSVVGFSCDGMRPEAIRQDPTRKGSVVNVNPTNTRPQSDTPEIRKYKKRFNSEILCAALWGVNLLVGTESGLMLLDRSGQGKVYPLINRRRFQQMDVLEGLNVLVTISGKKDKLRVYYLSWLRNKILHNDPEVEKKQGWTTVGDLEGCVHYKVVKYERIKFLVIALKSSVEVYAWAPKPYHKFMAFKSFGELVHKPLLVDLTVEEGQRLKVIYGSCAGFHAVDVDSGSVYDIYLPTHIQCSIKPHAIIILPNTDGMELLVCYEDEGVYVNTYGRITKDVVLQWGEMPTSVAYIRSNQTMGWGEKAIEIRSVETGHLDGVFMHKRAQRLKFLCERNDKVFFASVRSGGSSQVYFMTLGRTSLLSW
# [11] = target: Ribosomal protein S6 kinase alpha-5 (Homo sapiens, UniProt O75582)
# Chain of Ribosomal protein S6 kinase alpha-5 (O75582 whole entry, looked up): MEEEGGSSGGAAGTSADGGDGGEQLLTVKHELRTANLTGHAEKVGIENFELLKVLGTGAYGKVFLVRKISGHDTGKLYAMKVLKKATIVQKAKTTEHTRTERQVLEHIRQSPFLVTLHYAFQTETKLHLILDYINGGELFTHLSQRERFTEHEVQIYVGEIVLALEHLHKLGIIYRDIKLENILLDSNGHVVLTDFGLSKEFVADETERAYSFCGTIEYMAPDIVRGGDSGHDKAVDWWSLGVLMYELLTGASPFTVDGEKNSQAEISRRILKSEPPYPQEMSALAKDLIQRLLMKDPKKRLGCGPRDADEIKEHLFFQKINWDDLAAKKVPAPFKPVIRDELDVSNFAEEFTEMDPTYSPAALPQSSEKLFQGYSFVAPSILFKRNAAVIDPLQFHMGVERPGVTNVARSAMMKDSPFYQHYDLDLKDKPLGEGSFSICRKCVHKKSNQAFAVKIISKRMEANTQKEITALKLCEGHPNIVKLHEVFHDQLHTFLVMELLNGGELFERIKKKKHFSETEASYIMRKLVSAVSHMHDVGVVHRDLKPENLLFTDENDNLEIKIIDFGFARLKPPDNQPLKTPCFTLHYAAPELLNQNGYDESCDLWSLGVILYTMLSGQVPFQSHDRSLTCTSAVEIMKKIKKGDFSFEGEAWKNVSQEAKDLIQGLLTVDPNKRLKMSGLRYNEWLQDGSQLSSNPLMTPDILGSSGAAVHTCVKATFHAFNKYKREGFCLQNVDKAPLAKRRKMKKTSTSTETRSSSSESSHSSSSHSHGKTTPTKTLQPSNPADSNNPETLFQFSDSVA
# [12] = target: Wee1-like protein kinase (Homo sapiens) (UniProt P30291)
# Chain of Wee1-like protein kinase (Homo sapiens) (P30291 whole entry, looked up): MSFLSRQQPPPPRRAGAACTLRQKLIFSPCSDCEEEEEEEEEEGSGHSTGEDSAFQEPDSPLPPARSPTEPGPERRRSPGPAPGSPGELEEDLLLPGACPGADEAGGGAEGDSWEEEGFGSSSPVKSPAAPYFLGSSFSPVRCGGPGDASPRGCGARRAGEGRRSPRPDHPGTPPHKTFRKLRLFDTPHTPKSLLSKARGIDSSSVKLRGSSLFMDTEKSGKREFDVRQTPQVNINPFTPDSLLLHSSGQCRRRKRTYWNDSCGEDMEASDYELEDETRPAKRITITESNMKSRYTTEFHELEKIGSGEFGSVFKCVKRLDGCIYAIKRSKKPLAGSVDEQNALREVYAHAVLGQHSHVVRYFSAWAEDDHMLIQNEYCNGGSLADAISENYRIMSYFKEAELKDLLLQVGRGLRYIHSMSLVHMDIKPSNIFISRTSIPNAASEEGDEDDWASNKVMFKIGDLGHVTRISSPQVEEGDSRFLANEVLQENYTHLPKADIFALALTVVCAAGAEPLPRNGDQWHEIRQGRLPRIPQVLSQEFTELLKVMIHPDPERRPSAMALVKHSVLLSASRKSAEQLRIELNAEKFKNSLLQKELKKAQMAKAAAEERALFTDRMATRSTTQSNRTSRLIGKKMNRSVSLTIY
# [13] = system: Proto-oncogene tyrosine-protein kinase receptor Ret (Homo sapiens), P07949 [M918T]
# [14] = target: Proto-oncogene tyrosine-protein kinase Src (Homo sapiens) (UniProt P12931)
# [15] = target: High affinity nerve growth factor receptor (Homo sapiens) (UniProt P04629)
# [16] = target: T1, Serine/threonine-protein kinase haspin (Homo sapiens) (UniProt Q8TF76)
# T1 sequence (whole entry): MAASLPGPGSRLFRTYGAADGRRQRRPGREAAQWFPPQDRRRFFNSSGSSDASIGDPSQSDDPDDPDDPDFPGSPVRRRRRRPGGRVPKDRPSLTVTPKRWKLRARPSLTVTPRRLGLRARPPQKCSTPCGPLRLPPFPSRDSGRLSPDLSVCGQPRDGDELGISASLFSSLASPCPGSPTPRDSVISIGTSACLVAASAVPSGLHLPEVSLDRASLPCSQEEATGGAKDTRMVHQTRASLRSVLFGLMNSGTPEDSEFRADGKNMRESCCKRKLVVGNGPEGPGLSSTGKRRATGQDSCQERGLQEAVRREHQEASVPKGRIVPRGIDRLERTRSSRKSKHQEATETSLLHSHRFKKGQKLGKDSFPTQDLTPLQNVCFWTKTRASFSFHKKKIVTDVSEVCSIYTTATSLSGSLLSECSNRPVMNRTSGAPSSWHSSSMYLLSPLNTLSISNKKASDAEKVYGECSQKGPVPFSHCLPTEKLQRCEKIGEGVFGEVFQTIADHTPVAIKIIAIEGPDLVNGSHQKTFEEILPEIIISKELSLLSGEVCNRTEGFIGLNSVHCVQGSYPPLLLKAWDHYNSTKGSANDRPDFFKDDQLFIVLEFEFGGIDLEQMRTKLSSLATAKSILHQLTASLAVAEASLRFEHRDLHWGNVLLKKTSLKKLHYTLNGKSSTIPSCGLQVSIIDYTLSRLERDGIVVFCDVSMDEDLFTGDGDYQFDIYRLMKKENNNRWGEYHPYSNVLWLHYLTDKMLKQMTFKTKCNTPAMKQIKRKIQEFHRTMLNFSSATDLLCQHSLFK
# [17] = target: Calcium/calmodulin-dependent protein kinase kinase 1 (Homo sapiens) (UniProt Q8N5S9)
# [18] = target: Receptor tyrosine-protein kinase erbB-4 (Homo sapiens) (UniProt Q15303)
# [19] = target: Tyrosine-protein kinase Fgr (Homo sapiens) (UniProt P09769)
# [20] = target: Cyclin-dependent kinase 18 (Homo sapiens) (UniProt Q07002)
# Chain of Cyclin-dependent kinase 18 (Homo sapiens) (Q07002 whole entry): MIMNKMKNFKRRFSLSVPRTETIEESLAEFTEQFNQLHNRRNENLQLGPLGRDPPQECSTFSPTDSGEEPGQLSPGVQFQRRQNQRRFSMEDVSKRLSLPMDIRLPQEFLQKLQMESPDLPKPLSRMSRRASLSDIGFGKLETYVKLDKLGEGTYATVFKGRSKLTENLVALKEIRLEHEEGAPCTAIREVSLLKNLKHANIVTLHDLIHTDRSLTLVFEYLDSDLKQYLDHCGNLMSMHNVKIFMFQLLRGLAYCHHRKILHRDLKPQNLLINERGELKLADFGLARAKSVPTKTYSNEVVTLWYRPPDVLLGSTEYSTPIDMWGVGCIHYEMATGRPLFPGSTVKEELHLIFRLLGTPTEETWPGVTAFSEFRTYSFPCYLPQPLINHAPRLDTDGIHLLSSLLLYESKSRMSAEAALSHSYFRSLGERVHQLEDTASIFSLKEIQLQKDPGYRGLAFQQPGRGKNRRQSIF
# [21] = target: T2, NUAK family SNF1-like kinase 2 (Homo sapiens) (UniProt Q9H093)
# T2 sequence (whole entry): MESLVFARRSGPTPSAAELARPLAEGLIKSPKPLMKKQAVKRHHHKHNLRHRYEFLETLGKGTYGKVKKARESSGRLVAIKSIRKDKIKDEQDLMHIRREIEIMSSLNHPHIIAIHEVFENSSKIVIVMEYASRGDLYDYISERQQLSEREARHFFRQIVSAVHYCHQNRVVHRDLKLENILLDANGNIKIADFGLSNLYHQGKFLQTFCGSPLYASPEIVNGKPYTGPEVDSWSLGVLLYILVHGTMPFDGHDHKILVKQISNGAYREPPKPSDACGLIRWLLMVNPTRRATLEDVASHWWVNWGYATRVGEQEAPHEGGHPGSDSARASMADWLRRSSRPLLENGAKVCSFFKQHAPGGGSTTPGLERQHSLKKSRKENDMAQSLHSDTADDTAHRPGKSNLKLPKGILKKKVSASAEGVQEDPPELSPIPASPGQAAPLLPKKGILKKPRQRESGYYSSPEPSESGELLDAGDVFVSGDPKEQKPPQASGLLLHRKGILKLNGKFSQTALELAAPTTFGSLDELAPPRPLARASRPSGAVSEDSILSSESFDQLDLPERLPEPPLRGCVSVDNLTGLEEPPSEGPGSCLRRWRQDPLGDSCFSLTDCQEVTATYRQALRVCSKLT
# [22] = target: Serine/threonine-protein kinase OSR1 (Homo sapiens) (UniProt O95747)
# [23] = target: Dual specificity testis-specific protein kinase 1 (Homo sapiens) (UniProt Q15569)
# [24] = target: Serine/threonine-protein kinase 36 (Homo sapiens) (UniProt Q9NRP7)
# [25] = target: Activin receptor type-2A (Homo sapiens) (UniProt P27037)
# [26] = target: Mitotic checkpoint serine/threonine-protein kinase BUB1 (Homo sapiens) (UniProt O43683)
# Chain of Mitotic checkpoint serine/threonine-protein kinase BUB1 (Homo sapiens) (O43683 whole entry, looked up): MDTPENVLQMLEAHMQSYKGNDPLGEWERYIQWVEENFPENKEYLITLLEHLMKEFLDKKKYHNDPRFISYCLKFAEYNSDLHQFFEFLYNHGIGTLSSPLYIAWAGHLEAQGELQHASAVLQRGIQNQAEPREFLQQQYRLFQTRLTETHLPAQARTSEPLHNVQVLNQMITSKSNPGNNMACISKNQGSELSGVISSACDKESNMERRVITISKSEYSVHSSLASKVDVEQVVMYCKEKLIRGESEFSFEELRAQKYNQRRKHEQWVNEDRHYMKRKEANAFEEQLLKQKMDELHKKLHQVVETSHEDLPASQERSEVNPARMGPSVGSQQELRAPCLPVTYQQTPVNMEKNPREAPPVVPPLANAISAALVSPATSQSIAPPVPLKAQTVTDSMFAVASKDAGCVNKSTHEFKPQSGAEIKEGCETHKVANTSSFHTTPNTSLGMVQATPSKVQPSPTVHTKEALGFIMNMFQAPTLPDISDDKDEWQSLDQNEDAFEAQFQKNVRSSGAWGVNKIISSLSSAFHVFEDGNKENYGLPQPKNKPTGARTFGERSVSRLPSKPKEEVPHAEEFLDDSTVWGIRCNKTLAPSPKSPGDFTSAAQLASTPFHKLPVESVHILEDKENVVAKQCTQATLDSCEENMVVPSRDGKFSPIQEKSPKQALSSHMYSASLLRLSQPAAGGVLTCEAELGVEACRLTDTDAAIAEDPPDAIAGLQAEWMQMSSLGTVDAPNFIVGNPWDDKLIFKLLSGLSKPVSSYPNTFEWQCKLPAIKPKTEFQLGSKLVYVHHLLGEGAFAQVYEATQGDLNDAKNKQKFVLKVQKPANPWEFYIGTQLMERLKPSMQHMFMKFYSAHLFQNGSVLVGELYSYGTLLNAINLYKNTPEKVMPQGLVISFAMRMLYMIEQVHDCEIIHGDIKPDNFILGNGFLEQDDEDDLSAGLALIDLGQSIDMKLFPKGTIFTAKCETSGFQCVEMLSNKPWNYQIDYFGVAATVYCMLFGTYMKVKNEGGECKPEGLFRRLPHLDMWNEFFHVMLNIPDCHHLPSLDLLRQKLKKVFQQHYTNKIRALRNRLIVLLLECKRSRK
SMILES,residual activity [1],residual activity [2],residual activity [3],residual activity [4],residual activity [5],residual activity [6],residual activity [7],residual activity [8],residual activity [9],residual activity [10],residual activity [11],residual activity [12],residual activity [13],residual activity [14],residual activity [15],residual activity [16],residual activity [17],residual activity [18],residual activity [19],residual activity [20],other results
CC1=C(C#N)C(c2ccc3c(c2)c(NC(=O)c2ccccc2C)nn3C)C(C#N)=C(C)N1 [BAY-974],100%,61%,81%,80%,94%,88%,72%,69%,100%,100%,87%,100%,100%,89%,77%,71%,100%,65%,92%,100%,residual activity [21]: 81%; residual activity [22]: 83%; residual activity [23]: 96%; residual activity [24]: 87%; residual activity [25]: 97%; residual activity [26]: 74%
CCc1ccccc1C(=O)Nc1n[nH]c2c(C)c(F)c(C3C(C#N)=C(C)N(C)C(C)=C3C#N)cc12 [BAY-3827],98%,43%,73%,83%,100%,71%,87%,43%,100%,100%,90%,100%,64%,94%,97%,100%,100%,84%,51%,75%,residual activity [21]: 40%; residual activity [22]: 100%; residual activity [23]: 96%; residual activity [24]: 100%; residual activity [25]: 100%; residual activity [26]: 100%
